Source: patent US9255088B2, “Premature-termination-codons readthrough compounds” (The Regents of the University of California, priority 2010, dated 2016)

Columns and labels:
[1] = test system: ATMs1981 autophosphorylation in AT153LA cells (TGA); test: Flow cytometry ATMs1981 autophosphorylation (FC-ATM) in AT153LA cells; assay type: cell-based, human; parameters: FC-ATM (Delta-FI, 30 μM): unit not given here; details: for FCATMs1981: summary of positive results; on FCATMs1981: key: the positive results on various assays are also summarized and labeled as '+'
Procedure: FC-SMC1 assay was performed as recently described (Nahas et al., 2009). FC-ATM-Ser1981 assay was based on Honda's assay (Honda et al., 2009, Leukemia. 23:409-414) with modifications. In brief, cells were resuspended in PBS and radiated for 10 Gy. After 1 h, the cells were fixed and permeabilized using the FIX & PERM cell permeabilization kit (Invitrogen). The cells were then incubated with 1 μl of mouse ATM-Ser1981 antibody (Cell Signaling Technology) for 2 h at room temperature. Cells were washed and resuspended in 100 μl PBS with Alexa Fluor 488 anti-mouse IgG (Invitrogen) for 45 min. Cells were next washed and resuspended in PBS with 0.2% paraformaldehyde and analyzed using a FACSCalibur (BD).
Studies on readthrough activity of RTC#13 derivatives as measured by FC-ATMS 1981 were performed according to the procedures provided in Example 1.
These two series, 7 and 9, were tested for readthrough activity using an assay in which the ATM protein kinase activity was measured using a flow cytometry-based ATMs1981 autophosphorylation assay (FC-ATM) (Nahas, S. A; et al., Clin. Chem. 2009, 55, 463-72). […] An increased Delta-FI indicates the restoration of ATM kinase activity by a compound.
(§1) These two series, 13 and 15, were again tested for readthrough activity using the assay in which the ATM protein kinase activity was measured by functional flow cytometry (FC-ATM) (Table 4 and FIG. 12). A second assay, irradiation (1R)-induced ATMs1981 nuclear foci formation (IRIF-ATM), was also used to confirm the readthrough activity of these compounds (Table 4 and FIG. 13). Table 3 summarizes the data for the analogues 13 and 15 (at 30 μM), in which the groups R, R′, and X were varied. More detailed data are reported in FIG. 5 (for FC-ATM assay), and in FIG. 6 (for IRIF-ATM assay). […] Thus, the pyrimidinedione unit serves as a good structural replacement for the 2-imino and 2-thioxo thiazolidin-4-one units.

[2] = test system: ATM-Ser1981 foci in AT153LA cells (TGA A); test: Irradiation-induced ATM-Ser1981 foci (IRIF) in AT153LA cells; on IRIF (ATMs1981): key: the positive results on various assays are also summarized and labeled as '+'; assay type: cell-based, human; details: for IR-induced ATMs1981 foci formation, readthrough activity: A-T153LA cells (TGA), FIG. 13; for IRIF-ATM (%) (30 μM): Table 4, IR-induced ATMs1981 nuclear foci formation; for IRIF (ATMs1981): summary of positive results
Procedure: To evaluate the function of RTC-induced ATM protein, we measured irradiation-induced foci (IRIF) formation of ATM-Ser1981 in the same ATI53LA cells (TGA A). […] The maximum IRIF induction achieved in A-T cells by 10 μM RTC#13 was ˜40% of wild-type level. As a positive readthrough control, 144 μM of G418 (100 μg/ml) was used to treat cells. Our previous studies had shown that, at this concentration, […] induced a maximum level of ATMs1981 IRIF (Lai et al., 2004).
Immunostaining of nuclear foci of ATM-Ser1981 was performed as previously reported (Du et al., 2007). In brief, after being treated with compound for 4 d, cells were irradiated with 2 Gy and incubated at 37° C. for 30 min. The cells were dropped onto coverslips, fixed with 4% paraformaldehyde, and permeabilized. Coverslips were blocked for 1 h and incubated with mouse anti-ATM pSer1981 for 1 h (1:500; Rockland Immunochemicals, Inc). After a second blocking, cells were stained with FITC-conjugated anti-mouse IgG (1:150; Jackson ImmunoResearch Laboratories) for 1 h and mounted onto slides.
Studies on IR-induced ATMs1981 foci formation by RTC#13 and derivatives 13a, 13b, 13d, 13e, 13f, 13g, 13h, 13i, 13j, and 13k in A-T153LA cells (TGA) were performed according to the procedures provided in Example 1.
as §1

[3] = Table 2, compounds 7, 30 µM, change in fluorescence intensity before and after ionizing radiation
[4] = Table 4, compounds 13 and 15, 30 μM

## CN1C(=N)S/C(=C\c2ccc(-c3ccccc3[N+](=O)[O-])o2)C1=O [Compound 7c, (Z)-2-imino-3-methyl-5-((5-(2-nitrophenyl)furan-2-yl)methylene)thiazolidin-4-one]
[1]; [3]
  FC-ATM (Delta-FI, 30 μM): negative

## N=C1NC(=O)/C(=C/c2ccc(-c3ccccc3F)o2)S1 [Compound 7g, (Z)-5-((5-(2-fluorophenyl)furan-2-yl)methylene)-2-iminothiazolidin-4-one]
[1]; [3]
  FC-ATM (Delta-FI, 30 μM): negative

## COc1cccc(-c2ccc(/C=C3\SC(=N)NC3=O)o2)c1 [Compound 7h, (Z)-2-imino-5-((5-(3-methoxyphenyl)furan-2-yl)methylene)thiazolidin-4-one]
[1]; [3]
  FC-ATM (Delta-FI, 30 μM): 1.90
[1]
  FCATMs1981: +

## N=C1NC(=O)/C(=C/c2ccc(-c3cccc(Cl)c3)o2)S1 [Compound 7i, (Z)-5-((5-(3-chlorophenyl)furan-2-yl)methylene)-2-iminothiazolidin-4-one]
[1]; [3]
  FC-ATM (Delta-FI, 30 μM): 2.27
[1]
  FCATMs1981: +

## O=C1NC(=S)S/C1=C\c1ccc(-c2ccccc2C(F)(F)F)o1 [Compound 7k, (Z)-2-thioxo-5-((5-(2-(trifluoromethyl)phenyl)furan-2-yl)methylene)thiazolidin-4-one]
[1]; [3]
  FC-ATM (Delta-FI, 30 μM): negative

## COc1ccccc1-c1ccc(/C=C2\SC(=S)NC2=O)o1 [Compound 7l, (Z)-5-((5-(2-methoxyphenyl)furan-2-yl)methylene)-2-thioxothiazolidin-4-one]
[1]; [3]
  FC-ATM (Delta-FI, 30 μM): negative

## COc1cccc(-c2ccc(/C=C3\SC(=S)NC3=O)o2)c1 [Compound 7o]
[1]; [3]
  FC-ATM (Delta-FI, 30 μM): 2.66
[1]
  FCATMs1981: +

## O=C1NC(=S)S/C1=C\c1ccc(-c2cccc(Cl)c2)o1 [Compound 7p, (Z)-5-((5-(3-chlorophenyl)furan-2-yl)methylene)-2-thioxothiazolidin-4-one]
[1]; [3]
  FC-ATM (Delta-FI, 30 μM): 2.86
[1]
  FCATMs1981: +

## N=C1NC(=O)/C(=C/c2cc3ccccc3o2)S1 [Compound 9a, (Z)-5-(benzofuran-2-ylmethylene)-2-iminothiazolidin-4-one]
[1]; Table 3, compounds 9, 30 μM
  FC-ATM (Delta-FI, 30 μM): negative

## N=C1NC(=O)/C(=C/c2cc3ccccc3[nH]2)S1 [Compound 9b, (Z)-5-((1H-indol-2-yl)methylene)-2-iminothiazolidin-4-one]
[1]; Table 3, compounds 9, 30 μM
  FC-ATM (Delta-FI, 30 μM): negative

## N=C1NC(=O)/C(=C/c2c[nH]c3ccccc23)S1 [Compound 9c, (Z)-5-((1H-indol-3-yl)methylene)-2-iminothiazolidin-4-one]
[1]; Table 3, compounds 9, 30 μM
  FC-ATM (Delta-FI, 30 μM): negative

## N=C1NC(=O)/C(=C/c2ccc(-c3ccccn3)o2)S1 [Compound 9d, (Z)-2-imino-5-((5-(pyridin-2-yl)furan-2-yl)methylene)thiazolidin-4-one]
[1]; Table 3, compounds 9, 30 μM
  FC-ATM (Delta-FI, 30 μM): negative

## N=C1NC(=O)/C(=C/c2ccc(-c3ccccc3)s2)S1 [Compound 9e, (Z)-2-imino-5-((5-phenylthiophen-2-yl)methylene)thiazolidin-4-one]
[1]; Table 3, compounds 9, 30 μM
  FC-ATM (Delta-FI, 30 μM): negative

## N=C1NC(=O)/C(=C/c2ccco2)S1 [Compound 9f, (Z)-5-(furan-2-ylmethylene)-2-iminothiazolidin-4-one]
[1]; Table 3, compounds 9, 30 μM
  FC-ATM (Delta-FI, 30 μM): negative

## O=C1NC(=S)S/C1=C\c1cc2ccccc2o1 [Compound 9g, (Z)-5-(benzofuran-2-ylmethylene)-2-thioxothiazolidin-4-one]
[1]
  FC-ATM readthrough activity: positive results
  FCATMs1981: +
[1]; Table 3, compounds 9, 30 μM
  FC-ATM (Delta-FI, 30 μM): 3.50

## O=C1NC(=S)S/C1=C\c1cc2ccccc2[nH]1 [Compound 9h, (Z)-5-((1H-indol-2-yl)methylene)-2-thioxothiazolidin-4-one]
[1]; Table 3, compounds 9, 30 μM
  FC-ATM (Delta-FI, 30 μM): negative

## O=C1NC(=S)S/C1=C\c1c[nH]c2ccccc12 [Compound 9i, (Z)-5-((1H-indol-3-yl)methylene)-2-thioxothiazolidin-4-one]
[1]; Table 3, compounds 9, 30 μM
  FC-ATM (Delta-FI, 30 μM): negative

## O=C1NC(=S)S/C1=C\c1ccc(-c2ccccn2)o1 [Compound 9j, (Z)-5-((5-(pyridin-2-yl)furan-2-yl)methylene)-2-thioxothiazolidin-4-one]
[1]; Table 3, compounds 9, 30 μM
  FC-ATM (Delta-FI, 30 μM): negative

## O=c1[nH]c(=O)n(Cc2ccc(-c3ccccc3[N+](=O)[O-])o2)cc1F [Compound 13b, 5-fluoro-1-((5-(2-nitrophenyl)furan-2-yl)methyl)pyrimidine-2,4(1H,3H)-dione]
[2]
  IR-induced ATMs1981 foci formation, readthrough activity: statistically significant readthrough activity
  IRIF-ATM (%) (30 μM): 14.5%
[1]; [4]
  FC-ATM (Delta-FI, 30 μM): 2.08
[1]
  FCATMs1981: +

## Cc1cn(Cc2ccc(-c3ccccc3[N+](=O)[O-])o2)c(=O)[nH]c1=O [Compound 13c]
[2]
  IRIF-ATM (%) (30 μM): negative
[1]; [4]
  FC-ATM (Delta-FI, 30 μM): negative

## O=Cc1cn(Cc2ccc(-c3ccccc3[N+](=O)[O-])o2)c(=O)[nH]c1=O [Compound 13d, 1-((5-(2-nitrophenyl)furan-2-yl)methyl)-2,4-dioxo-1,2,3,4-tetrahydropyrimidine-5-carbaldehyde]
[2]
  IR-induced ATMs1981 foci formation, readthrough activity: statistically significant readthrough activity
  IRIF-ATM (%) (30 μM): 16.0%
  IRIF (ATMs1981): +
[1]; [4]
  FC-ATM (Delta-FI, 30 μM): 2.24
[1]
  FCATMs1981: +

## O=c1ccn(Cc2ccc(-c3ccccc3)o2)c(=O)[nH]1 [Compound 13e, 1-((5-phenylfuran-2-yl)methyl)pyrimidine-2,4(1H,3H)-dione]
[2]
  IR-induced ATMs1981 foci formation, readthrough activity: statistically significant readthrough activity
  IRIF-ATM (%) (30 μM): 9.4%
  IRIF (ATMs1981): +
[1]; [4]
  FC-ATM (Delta-FI, 30 μM): 3.42
[1]
  FCATMs1981: +

## Cc1cn(Cc2ccc(-c3ccccc3)o2)c(=O)[nH]c1=O [Compound 13f, 5-methyl-1-((5-phenylfuran-2-yl)methyl)pyrimidine-2,4(1H,3H)-dione]
[2]
  IR-induced ATMs1981 foci formation, readthrough activity: statistically significant readthrough activity
  IRIF-ATM (%) (30 μM): 22.75%
  IRIF (ATMs1981): +
[1]; [4]
  FC-ATM (Delta-FI, 30 μM): 3.80
[1]
  FCATMs1981: +

## O=c1ccn(Cc2ccc(-c3ccccc3F)o2)c(=O)[nH]1 [Compound 13g, 1-((5-(2-fluorophenyl)furan-2-yl)methyl)pyrimidine-2,4(1H,3H)-dione]
[2]
  IR-induced ATMs1981 foci formation, readthrough activity: all RTC#13 derivatives show statistically significant readthrough activity except for Derivative 13g
  IRIF-ATM (%) (30 μM): 20%
[1]; [4]
  FC-ATM (Delta-FI, 30 μM): 5.43
[1]
  FCATMs1981: +

## Cc1cn(Cc2ccc(-c3ccccc3F)o2)c(=O)[nH]c1=O [Compound 13h, 1-((5-(2-fluorophenyl)furan-2-yl)methyl)-5-methylpyrimidine-2,4(1H,3H)-dione]
[2]
  IR-induced ATMs1981 foci formation, readthrough activity: statistically significant readthrough activity
  IRIF-ATM (%) (30 μM): 9.6%
  IRIF (ATMs1981): +
[1]; [4]
  FC-ATM (Delta-FI, 30 μM): 6.16
[1]
  FCATMs1981: +

## O=c1ccn(Cc2ccc(-c3cccc(Cl)c3)o2)c(=O)[nH]1 [Compound 13i, 1-((5-(3-chlorophenyl)furan-2-yl)methyl)pyrimidine-2,4(1H,3H)-dione]
[2]
  IR-induced ATMs1981 foci formation, readthrough activity: statistically significant readthrough activity
  IRIF-ATM (%) (30 μM): 11.33%
[1]; [4]
  FC-ATM (Delta-FI, 30 μM): 5.07
[1]
  FCATMs1981: +
